{"source": "patent US10167276B2", "about": "“Compounds and methods for inhibiting JAK” (Dizal (Jiangsu) Pharmaceutical Co., Ltd., priority 2015, dated 2019)", "key": {"pEGFR": {"tested_on": "pEGFR", "assay": "pEGFR levels in LG1049 tumor lysates (Western Blot)", "format": "in vivo, mice", "conditions": "osimertinib 25 mg/kg QD, 5 days of treatment, 4H after the final dose", "text": "(§1) LG1 049 tumor fragments were implanted subcutaneously in female NSG mice (JAX Stock No. 005557)."}, "[1]": {"tested_on": "LG1049 non-small cell lung cancer PDX tumor xenografts", "assay": "In vivo efficacy with osimertinib in the LG1049 xenograft PDX model", "experimental": "LG1049 non-small cell lung cancer PDX tumor xenografts were grown subcutaneously in female NSG mice. […] Tumor volume was measured twice a week.\nas §1"}, "[2]": {"assay": "Drug levels in plasma by LC/MS, NCI-H1975 tumor bearing mice", "format": "in vivo", "conditions": "increasing dose of Example 32 (12.5 to 50 mg/kg BID), one day of treatment", "experimental": "(§2) NCI-H1975 cells (a human NSCLC cell line with L858R and T790M mutations in the EGFR gene) tumor cells were implanted subcutaneously in female NCr nude mice (Taconic Laboratories), 3×10^6 cells/mouse. […] Drug levels in plasma were measured by LC/MS, using a Linear Ion Trap Quadrupole LC/MS/MS Mass Spectrometer (QTRAP 5500 model 1024945-BB, AB Sciex Instruments), with separation on a Waters Xbridge C18 column."}, "pSTAT3 (Y705) [3]": {"tested_on": "pSTAT3 (Y705)", "assay": "pSTAT3 levels in NCI-H1650 tumor lysates (Western Blot)", "format": "in vivo, mice", "conditions": "Example 32 as single agent and in combination with gefitinib, after one day of treatment", "experimental": "(§3) Twenty-three days after cell implantation, the mice were randomized into 6 groups (9 mice/group, average tumor volume 257 mm^3, range 205-303 mm^3). […] Drug levels in plasma were measured by LC/MS, using a Linear Ion Trap Quadrupole LC/MS/MS Mass Spectrometer (QTRAP 5500 model 1024945-BB, AB Sciex Instruments), with separation on a Waters Xbridge C18 column."}, "pSTAT3 (Y705) [4]": {"tested_on": "pSTAT3 (Y705)", "assay": "pSTAT3 (Y705) levels in NCI-H1975 tumor lysates (sandwich ELISA)", "format": "in vivo, mice", "conditions": "increasing dose of Example 32 (12.5 to 50 mg/kg BID), one day of treatment", "experimental": "as §2"}, "pSTAT3 (Y705) [5]": {"tested_on": "pSTAT3 (Y705)", "assay": "pSTAT3 levels in LG1049 tumor lysates (Western Blot)", "format": "in vivo, mice", "conditions": "Example 32 25 mg/kg BID, 5 days of treatment, 4H after the final dose", "from_the_text": "LG1 049 tumor fragments were implanted subcutaneously in female NSG mice (JAX Stock No. 005557). Once tumor volumes reached ˜125-275 mm^3, mice were randomized into 5 groups (10 mice/group, average tumor volume 189 mm^3, range 138-253 mm^3)."}, "[6]": {"tested_on": "STAT3 phosphorylation in NCI-H1975 cells", "assay": "Cellular pSTAT3 assay in NCI-H1975 cells", "format": "cell-based", "conditions": "Homo sapiens, 2 hours with compound", "how_it_was_run": "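NCI-H1975 cells (RPMI, 10% FBS) were treated with compound for 2 hours at 37° C., then lysed. Phospho-STAT3 in lysates was quantified by sandwich ELISA (STAT3 capture, phospho-STAT3 detection, HRP secondary, TMB), read at 450 nm.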"}, "PC-9 tumor xenografts": {"tested_on": "PC-9 tumor xenografts", "assay": "In vivo efficacy with gefitinib in the PC-9 xenograft model", "set-up": "species or system mice", "experimental": "(§4) Tumor volume was measured twice a week."}, "[7]": {"tested_on": "NCI-H1650 tumor xenografts", "assay": "In vivo efficacy with gefitinib in the H1650 xenograft model", "set-up": "species or system mice", "conditions": "Example 32 25 or 50 mg/kg BID + gefitinib 6.25 mg/kg QD, oral, 21 days", "experimental": "as §4, §3"}, "pSTAT3 (Y705) [8]": {"tested_on": "pSTAT3 (Y705)", "assay": "pSTAT3 (Y705) levels in PC-9 tumor lysates (Western Blot)", "format": "in vivo, mice", "conditions": "increasing dose of Example 32 (12.5, 50 mg/kg BID) with gefitinib; 2, 8 and 24 hours after the AM dose, last day"}, "[9]": {"tested_on": "NCI-H1975 tumor xenografts", "assay": "In vivo efficacy with osimertinib in the H1975 xenograft model", "set-up": "species or system mice", "conditions": "oral, 18 days", "experimental": "as §4\nNCI-H1975 cells (a human NSCLC cell line with L858R and T790M mutations in the EGFR gene) tumor cells were implanted subcutaneously in female NCr nude mice (Taconic Laboratories), 3×10^6 cells/mouse."}, "[10]": {"tested_on": "NCI-H1975 tumor xenografts", "assay": "In vivo efficacy of intermittent Example 32 dosing schedules with osimertinib in the H1975 xenograft model", "set-up": "species or system mice", "conditions": "oral", "experimental": "as §4\nNCI-H1975 cells (a human NSCLC cell line with L858R and T790M mutations in the EGFR gene), were implanted subcutaneously in female NCr nude mice (Taconic Laboratories), 3×10^6 cells/mouse."}, "JAK1": {"target": "JAK1 (Homo sapiens (Human), UniProt P23458)", "sequence (P23458 866-1154)": "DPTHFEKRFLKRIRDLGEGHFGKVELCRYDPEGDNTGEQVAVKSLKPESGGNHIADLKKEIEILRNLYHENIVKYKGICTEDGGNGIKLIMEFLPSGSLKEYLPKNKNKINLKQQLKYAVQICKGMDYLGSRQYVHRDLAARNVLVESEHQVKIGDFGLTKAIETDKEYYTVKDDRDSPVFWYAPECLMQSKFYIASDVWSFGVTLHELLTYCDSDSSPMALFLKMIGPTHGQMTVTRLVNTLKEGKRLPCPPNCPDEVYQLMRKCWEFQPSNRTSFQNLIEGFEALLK", "assay": "Enzyme inhibition studies, recombinant JAK1 (Caliper peptide phosphorylation)", "format": "biochemical", "conditions": "recombinant JAK1 (amino acids 866-1154); assayed at ATP Km (55 μM) and 5 mM ATP, table does not say which", "experimental": "(§5) Enzyme inhibition studies were performed using recombinant JAK1 (amino acids 866-1154, Life Technologies, #PV4774, Carlsbad, Calif.), JAK2 (amino acids 831-1132), or JAK3 (amino acids 781-1124) under buffer conditions of 50 mM HEPES pH 7.3, 1 mM DTT, 0.01% Tween® 20, 50 μg/mL BSA, and 10 mM MgCl2. JAK enzyme was expressed as an N-terminal GST fusion in insect cells and purified by glutathione-affinity and size-exclusion chromatographies. […] Phosphorylated and unphosphorylated peptides were separated and quantified by a Caliper LC3000 system (Caliper Life Sciences, MA) for calculating percent inhibition."}, "JAK3": {"target": "JAK3 (Homo sapiens (Human), UniProt P52333)", "sequence (P52333 781-1124)": "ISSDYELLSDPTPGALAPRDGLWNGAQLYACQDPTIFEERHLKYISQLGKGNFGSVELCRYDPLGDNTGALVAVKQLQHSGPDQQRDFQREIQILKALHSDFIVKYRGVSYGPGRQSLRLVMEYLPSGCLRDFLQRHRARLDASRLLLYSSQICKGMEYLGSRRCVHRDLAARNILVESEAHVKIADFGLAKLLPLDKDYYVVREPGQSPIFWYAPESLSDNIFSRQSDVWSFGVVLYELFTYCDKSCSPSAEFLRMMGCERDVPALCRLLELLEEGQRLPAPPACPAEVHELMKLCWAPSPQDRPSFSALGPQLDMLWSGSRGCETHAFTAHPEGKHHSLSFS", "assay": "Enzyme inhibition studies, recombinant JAK3 (Caliper peptide phosphorylation)", "format": "biochemical", "conditions": "recombinant JAK3 (amino acids 781-1124); assayed at ATP Km (3 μM) and 5 mM ATP, table does not say which", "experimental": "as §5"}, "JAK2": {"target": "JAK2 (Homo sapiens (Human), UniProt O60674)", "sequence (O60674 831-1132)": "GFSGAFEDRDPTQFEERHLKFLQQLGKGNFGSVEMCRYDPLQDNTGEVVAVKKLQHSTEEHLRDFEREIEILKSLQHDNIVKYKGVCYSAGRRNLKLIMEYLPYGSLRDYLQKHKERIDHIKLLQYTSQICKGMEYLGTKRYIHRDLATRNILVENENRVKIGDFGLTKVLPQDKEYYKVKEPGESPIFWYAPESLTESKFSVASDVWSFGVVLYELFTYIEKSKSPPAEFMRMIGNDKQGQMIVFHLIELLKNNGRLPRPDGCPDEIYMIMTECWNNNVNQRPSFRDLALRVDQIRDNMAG", "assay": "Enzyme inhibition studies, recombinant JAK2 (Caliper peptide phosphorylation)", "format": "biochemical", "conditions": "recombinant JAK2 (amino acids 831-1132); assayed at ATP Km (15 μM) and 5 mM ATP, table does not say which", "experimental": "as §5"}}}
{"smiles": "C=CC(=O)Nc1cc(Nc2nccc(-c3cn(C)c4ccccc34)n2)c(OC)cc1N(C)CCN(C)C", "note": "[osimertinib, reference compound]", "values": [{"measurement": "pEGFR knockdown in tumors", "setting": "pEGFR", "value": "robust knockdown"}, {"measurement": "body weight, single agent treatment", "setting": "[1]; LG1049 tumor bearing mice, weight loss stated to depend on tumor growth", "value": "lack of significant weight loss"}]}
{"smiles": "COc1nn(C)cc1Nc1nccc(-c2c[nH]c3c(NC(=O)[C@@H](C)N4CCN(C)CC4)cccc23)n1", "note": "[Example 32, (2R)-N-(3-{2-[(3-methoxy-1-methyl-1H-pyrazol-4-yl)amino]pyrimidin-4-yl}-1H-indol-7-yl)-2-(4-methylpiperazin-1-yl)propanamide]", "values": [{"measurement": "level of Example 32 in plasma", "setting": "[2]", "value": "increasing level of Example 32 in plasma"}, {"measurement": "pSTAT3 knockdown in tumors", "setting": "pSTAT3 (Y705) [3]", "value": "Knockdown of pSTAT3 was observed"}, {"measurement": "pSTAT3 knockdown in tumors", "setting": "pSTAT3 (Y705) [4]", "value": "dose dependent increase in pSTAT3 knockdown"}, {"measurement": "pSTAT3 knockdown in tumors", "setting": "pSTAT3 (Y705) [5]", "value": "robust knockdown"}, {"measurement": "IC50", "setting": "[6]", "value": 0.161, "unit": "µM"}, {"measurement": "antitumor activity in combination with gefitinib, compared to gefitinib", "setting": "PC-9 tumor xenografts; Example 32 12.5 or 50 mg/kg BID + gefitinib 6.25 mg/kg QD, oral, 21 days", "value": "enhanced the antitumor activity of gefitinib"}, {"measurement": "antitumor activity in combination with gefitinib, compared to single agent gefitinib", "setting": "PC-9 tumor xenografts; gefitinib + 12.5 mg/kg Example 32 daily", "value": "greater activity than single agent gefitinib, but did not quite achieve statistical significance"}, {"measurement": "antitumor activity in combination with gefitinib, compared to single agent gefitinib", "setting": "PC-9 tumor xenografts; gefitinib + 50 mg/kg Example 32 dosed 2 days on/5 days off", "value": "greater activity than single agent gefitinib, but did not quite achieve statistical significance"}, {"measurement": "tumor regression in combination with osimertinib, compared to osimertinib alone", "setting": "[1]; Example 32 25 mg/kg BID + osimertinib 25 mg/kg QD, oral, 28 days", "value": "enhanced the tumor regression induced by osimertinib"}, {"measurement": "antitumor activity as a single agent", "setting": "[1]; Example 32 25 mg/kg BID, oral, 18 days", "value": "no significant activity relative to vehicle control treatment"}, {"measurement": "body weight, single agent treatment", "setting": "[1]; mouse, in vivo", "value": "significant weight loss"}, {"measurement": "antitumor activity in combination with gefitinib, compared to single agent gefitinib", "setting": "[7]", "value": "enhanced the antitumor activity of gefitinib"}, {"measurement": "pSTAT3 knockdown in tumors", "setting": "pSTAT3 (Y705) [8]", "value": "dose dependent increase in the duration of pSTAT3 knockdown"}, {"measurement": "antitumor activity as a single agent", "setting": "[9]; Example 32 12.5, 25, 50 mg/kg BID", "value": "only weak antitumor activity relative to vehicle control treatment"}, {"measurement": "antitumor activity in combination with osimertinib, compared to osimertinib alone", "setting": "[9]; Example 32 12.5-50 mg/kg BID + osimertinib 2.5 mg/kg QD", "value": "enhanced the antitumor activity of osimertinib"}, {"measurement": "antitumor activity as a single agent", "setting": "[10]; Example 32 50 mg/kg BID, 19 days", "value": "no significant activity relative to vehicle control treatment"}, {"measurement": "antitumor activity in combination with osimertinib, compared to osimertinib alone", "setting": "[10]; Example 32 12.5-50 mg/kg BID, continuous or intermittent schedules + osimertinib 2.5 mg/kg QD", "value": "enhanced the antitumor activity of osimertinib"}]}
{"smiles": "CCOc1nn(C)cc1Nc1ncc(C)c(-c2c[nH]c3c(NC(=O)[C@@H](COC)N4CCN(C)CC4)cccc23)n1", "note": "[Example 64, (2R)-N-(3-{2-[(3-ethoxy-1-methyl-1H-pyrazol-4-yl)amino]-5-methylpyrimidin-4-yl}-1H-indol-7-yl)-3-methoxy-2-(4-methylpiperazin-1-yl)propanamide]", "values": [{"measurement": "IC50", "setting": "JAK1", "value": "< 0.005", "unit": "µM"}, {"measurement": "IC50", "setting": "JAK3", "value": "> 30", "unit": "µM"}, {"measurement": "IC50", "setting": "[6]", "value": 0.112, "unit": "µM"}, {"measurement": "IC50", "setting": "JAK2", "value": 2.04, "unit": "µM"}]}
